Calls of active or inactive are those of the source. How the calls were made is not given here.

Chain of Induced myeloid leukemia cell differentiation protein Mcl-1 (Homo sapiens) (Q07820 whole entry, looked up): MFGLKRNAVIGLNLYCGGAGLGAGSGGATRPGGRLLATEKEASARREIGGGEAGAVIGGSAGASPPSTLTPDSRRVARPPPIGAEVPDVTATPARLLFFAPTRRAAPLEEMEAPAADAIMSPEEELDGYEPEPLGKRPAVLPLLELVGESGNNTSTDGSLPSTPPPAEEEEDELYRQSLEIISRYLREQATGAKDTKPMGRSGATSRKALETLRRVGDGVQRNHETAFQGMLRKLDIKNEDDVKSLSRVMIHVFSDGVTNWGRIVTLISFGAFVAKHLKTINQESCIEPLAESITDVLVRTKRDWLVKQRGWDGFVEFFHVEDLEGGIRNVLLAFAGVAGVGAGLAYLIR

The first assay concerns the target Induced myeloid leukemia cell differentiation protein Mcl-1 (Homo sapiens) (UniProt Q07820). The experiment in a line: Mcl-1/Bim interaction regulators – biochemical, bead-based flow cytometry, multiplex, HTS hits, confirmation (AID 2086). Conditions: Bim-Mcl-1 interaction.
As to `COc1ccc(N2C(=O)C(Cl)=C(NC3C(=O)N(c4ccccc4)N(C)C3C)C2=O)cc1` (stereo unspecified), the EC50 result is “inactive”.

The same assay, now with this note: Bim-Mcl-1 interaction, at 100 µM (top of the series).
As to `Oc1ccc(NCc2ccccc2OCc2ccccc2)cc1`, the “response, inhibition or activation” value was “inactive”.

On to `CCN(CC)c1ccc(NC(=O)c2ccccc2Br)cc1S(=O)(=O)Nc1ccccc1OC`, for which the “response, inhibition or activation” value was “inactive”.

As for `Cc1cc(-c2cc(-c3ccc(Cl)cc3)nc(N)c2C#N)co1`, the “response, inhibition or activation” value was “inactive”.

For the molecule `Clc1nc(NCc2cccnc2)nc(N2CCOCC2)n1`, the “response, inhibition or activation” value was “inactive”.

On to `O=C1C(Cl)=C(N2CCN(c3ccccc3[N+](=O)[O-])CC2)C(=O)c2ccccc21`, for which the “response, inhibition or activation” value is “inactive”.

Turning to `COc1cc(CNc2ccc3[nH]c(=O)[nH]c3c2)cc(Br)c1OCC(=O)NC(C)(C)C`, the “response, inhibition or activation” value is “inactive”.

Take `C=CS(=O)(=O)c1sc(Cl)c(N2CCOCC2)c1[N+](=O)[O-]`: the “response, inhibition or activation” value was “inactive”.

In the case of `COc1ccccc1NC1=C(NC(C)=O)C(=O)c2ccccc2C1=O`, the “response, inhibition or activation” value was “inactive”.

Regarding `CNC(CC(=O)c1ccc([N+](=O)[O-])cc1)C(Cl)(Cl)Cl` (stereo unspecified), the “response, inhibition or activation” value is “inactive”.

Turning to `CC(=O)Nc1ccc(-n2cc(-c3ccccc3)[nH]c2=S)cc1`, the “response, inhibition or activation” value was “inactive”.

As for `O=[N+]([O-])c1c(NCCCO)cc(Sc2nc3ccccc3s2)c2nonc12`, the “response, inhibition or activation” value was “inactive”.

`Cc1ccc(-c2cc(C(=O)Nc3nccs3)c3ccccc3n2)o1`: the “response, inhibition or activation” value is “inactive”.

Turning to `O=C1/C(=C\c2ccco2)NC(=S)N1c1ccccc1`, the “response, inhibition or activation” value was “inactive”.

Turning to `Cc1ccc(-c2cc(-c3ccc(F)cc3)c(C#N)c(N)n2)o1`, the “response, inhibition or activation” value was “inactive”.

Regarding `Cc1ccc(-c2cc(-c3ccc(C)o3)nc(N)c2C#N)cc1`, the “response, inhibition or activation” value is “inactive”.

On to `CC(=O)OCCCNc1cc(Sc2nc3ccccc3s2)c2nonc2c1[N+](=O)[O-]`, for which the “response, inhibition or activation” value is “inactive”.

Consider `CN(CCO)c1cc(Sc2nc3ccccc3s2)c2nonc2c1[N+](=O)[O-]`, for which the “response, inhibition or activation” value was “inactive”.

Consider `CCN(CC)c1ccc(NC(=O)COc2ccccc2C)cc1S(=O)(=O)Nc1ccccc1OC`, for which the “response, inhibition or activation” value was “inactive”.

Turning to `O=C1NC(=O)C(=Cc2ccc(-c3cc(Cl)ccc3[N+](=O)[O-])o2)C(=O)N1`, the “response, inhibition or activation” value was “inactive”.

On to `CCN(CC)c1ccc(NC(=O)c2ccccc2F)cc1S(=O)(=O)Nc1ccccc1OC`, for which the “response, inhibition or activation” value is “inactive”.

On to `S=c1[nH]cc(-c2ccccc2)n1-c1ccccc1`, for which the “response, inhibition or activation” value is “inactive”.

Turning to `Cc1nnc(Sc2cc(NCCO)c([N+](=O)[O-])c3nonc23)s1`, the “response, inhibition or activation” value was “inactive”.

As to `COc1ccccc1-n1c(-c2ccccc2)c[nH]c1=S`, the “response, inhibition or activation” value was “inactive”.

With `O=C(Nc1nnc(COc2ccc(Cl)cc2)s1)c1ccco1`, the “response, inhibition or activation” value is “inactive”.

Consider `CCOc1ccccc1CNc1ccc(O)cc1`, for which the “response, inhibition or activation” value is “inactive”.

On to `CCN(CC)C(=O)COC(=O)c1cc(-c2ccco2)nc2ccccc12`, for which the “response, inhibition or activation” value is “inactive”.

`O=C1c2ccccc2C(=O)N1CN(C(=O)COc1ccc(Cl)cc1Cl)c1cccc(F)c1`: the “response, inhibition or activation” value is “inactive”.

With `O=c1c2c(n3nnnc3n1Cc1ccccc1)-c1ccccc1CC21CCCC1`, the “response, inhibition or activation” value was “inactive”.

Take `O=C(/C=C/c1ccc(-c2ccccc2[N+](=O)[O-])o1)c1ccccc1`: the “response, inhibition or activation” value was “inactive”.

For the molecule `CCN1C(=O)/C(=C\C=C2/C=CC=CN2CC)SC1=S`, the “response, inhibition or activation” value is “inactive”.

The values above are taken from PubChem BioAssay AID2086 (NMMLSC, 2009).
